Results reported in patent US20230355606A1, “LONG-ACTING FORMULATIONS” (Janssen Pharmaceutica NV, priority 2020, published 2023).
Where two headings read alike, the source gives them in different places.

Tests used:
M. tuberculosis H37Rv = type: in vivo, Mycobacterium tuberculosis; details: for reduction of mean CFU count compared to untreated mice: R10 (5/7); for Mean (SD) log10 M. tuberculosis CFU/lung: rifampin 10 mg/kg, 5/7, gavage, mice
[1] = tested on: mycobacterial ATP synthase versus eukaryotic mitochondrial ATP synthase; details: cited from earlier work
M. tuberculosis = details: mice; cited from earlier work
Mycobacterium leprae = details: M. lepra, mice; cited from earlier work

SMILES | reduction of mean CFU count compared to untreated mice (M. tuberculosis H37Rv; after 4 weeks of treatment) | reduction of mean CFU count compared to untreated mice (M. tuberculosis H37Rv; after 8 weeks of treatment) | reduction of mean CFU count compared to untreated mice (M. tuberculosis H37Rv; after 12 weeks of treatment) [log10 CFU/lung] | Mean (SD) log10 M. tuberculosis CFU/lung (M. tuberculosis H37Rv; Week 4) | Mean (SD) log10 M. tuberculosis CFU/lung (M. tuberculosis H37Rv; Week 8) | Mean (SD) log10 M. tuberculosis CFU/lung (M. tuberculosis H37Rv; Week 12) | selectivity index [1] | minimal dose killing 99% of bacilli (M. tuberculosis) [mg/kg/wk] | minimal dose killing 99% of bacilli (Mycobacterium leprae) [mg/kg/wk]
CO[C@H]1/C=C/O[C@@]2(C)Oc3c(C)c(O)c4c(O)c(c(/C=N/N5CCN(C)CC5)c(O)c4c3C2=O)NC(=O)/C(C)=C\C=C\[C@H](C)[C@H](O)[C@@H](C)[C@@H](O)[C@@H](C)[C@H](OC(C)=O)[C@@H]1C [R, rifampin] | approximately 1 log10 CFU/lung | about 2 log10 CFU/lung | ~3 | 3.39 (0.46) log10 CFU/lung | 2.74 (0.62) log10 CFU/lung | 1.27 (0.85) log10 CFU/lung |  |  | 
COc1nc2ccc(Br)cc2cc1[C@@H](c1ccccc1)[C@@](O)(CCN(C)C)c1cccc2ccccc12 [bedaquiline] |  |  |  |  |  |  | more than 20000 | 30 | < 5.0
